Source: BigSolDB 2.1

## CCc1nnc(NC(=O)c2ccc([N+](=O)[O-])cc2)s1
In ethanol, 288.15 K
  solubility (mole fraction): 2.81e-05
In ethanol, 293.15 K
  solubility (mole fraction): 3.17e-05
In ethanol, 298.15 K
  solubility (mole fraction): 3.91e-05
In ethanol, 303.15 K
  solubility (mole fraction): 4.87e-05
In ethanol, 308.15 K
  solubility (mole fraction): 5.95e-05
In ethanol, 313.15 K
  solubility (mole fraction): 7.34e-05
In ethanol, 318.15 K
  solubility (mole fraction): 8.87e-05
In n-hexane, 288.15 K
  solubility (mole fraction): 6.2e-06
In n-hexane, 293.15 K
  solubility (mole fraction): 7.4e-06
In n-hexane, 298.15 K
  solubility (mole fraction): 9.5e-06
In n-hexane, 303.15 K
  solubility (mole fraction): 1.19e-05
In n-hexane, 308.15 K
  solubility (mole fraction): 1.44e-05
In n-hexane, 313.15 K
  solubility (mole fraction): 1.79e-05
In n-hexane, 318.15 K
  solubility (mole fraction): 2.11e-05
In n-octanol, 288.15 K
  solubility (mole fraction): 4.34e-05
In n-octanol, 293.15 K
  solubility (mole fraction): 5.22e-05
In n-octanol, 298.15 K
  solubility (mole fraction): 6.52e-05
In n-octanol, 303.15 K
  solubility (mole fraction): 8.06e-05
In n-octanol, 308.15 K
  solubility (mole fraction): 9.61e-05
In n-octanol, 313.15 K
  solubility (mole fraction): 0.000118
In n-octanol, 318.15 K
  solubility (mole fraction): 0.00014
